Source: patent publication US20200023072A1, “ANTIBODY-DRUG CONJUGATES WITH IMMUNE-MEDIATED THERAPY AGENTS” (MEDIMMUNE LIMITED, priority 2016, published 2020)

Tested on: CT26 mouse colon cancer cells
Assay: In vivo vaccination/challenge mouse model with payload-treated CT26 cells
Settings: CT26 cells treated 24 hours with tubulysin (1 uM) or PBD (10 nM), implanted in left flank of BALB/c mice; challenge with untreated CT26 cells in opposite flank 1 week later; assessed on day 65
Procedure: CT26 cells were treated with either […] AZD9185 (tubulysin) or […] SG3199 (PBD) for 24 hours so that the cells were committed to cell death (as assessed by lack of growth in re-plating experiments) but still >95% viable. Five-hundred thousand of these treated cells were inoculated into the left flank of BALB/c mice to test for their ability to vaccinate for subsequent right flank challenge. Controls included cells treated with 75 Gy radiation or taken through 3 freeze-thaw cycles (necrotic). Challenge on the right flank utilized 3×10^6 untreated CT26 cells 7 days later.
In order to test this, tubulysin and PBD were used in a vaccination/challenge mouse model. CT26 mouse colon cancer cells were treated with either tubulysin (1 uM) or PBD (10 nM) for a period of 24 hours (FIG. 1A). At this point in time, the cells were still viable but committed subsequent cell death.
These dying but not yet dead cells were implanted subcutaneously into the left flank of BALB/c mice to test if they could vaccinate against subsequent challenge with a tumor forming dose of untreated CT26 cells in the opposite flank 1 week later. Irradiated cells were included as a positive control and necrotic cells which were taken through a freeze thaw cycle were included as a negative control.

| SMILES | mice protected from tumor formation [%] |
| --- | --- |
| COc1cc2c(cc1OCCCCCOc1cc3c(cc1OC)C(=O)N1C=C(C)C[C@H]1C=N3)N=C[C@@H]1CC(C)=CN1C2=O [PBD] | 70 |
| CC[C@H](C)[C@H](NC(=O)[C@H]1CCCCN1C)C(=O)N(COC(=O)CC(C)C)[C@H](C[C@@H](OC(C)=O)c1nc(C(=O)N[C@@H](Cc2ccc(C)cc2)C[C@H](C)C(=O)O)cs1)C(C)C [Tubulysin] | 40 |
